Target: T1, FUS-GFP (FUS^G156E-EGFP) (Homo sapiens, UniProt P35637, G156E)
T1 sequence (P35637 1-526 G156E): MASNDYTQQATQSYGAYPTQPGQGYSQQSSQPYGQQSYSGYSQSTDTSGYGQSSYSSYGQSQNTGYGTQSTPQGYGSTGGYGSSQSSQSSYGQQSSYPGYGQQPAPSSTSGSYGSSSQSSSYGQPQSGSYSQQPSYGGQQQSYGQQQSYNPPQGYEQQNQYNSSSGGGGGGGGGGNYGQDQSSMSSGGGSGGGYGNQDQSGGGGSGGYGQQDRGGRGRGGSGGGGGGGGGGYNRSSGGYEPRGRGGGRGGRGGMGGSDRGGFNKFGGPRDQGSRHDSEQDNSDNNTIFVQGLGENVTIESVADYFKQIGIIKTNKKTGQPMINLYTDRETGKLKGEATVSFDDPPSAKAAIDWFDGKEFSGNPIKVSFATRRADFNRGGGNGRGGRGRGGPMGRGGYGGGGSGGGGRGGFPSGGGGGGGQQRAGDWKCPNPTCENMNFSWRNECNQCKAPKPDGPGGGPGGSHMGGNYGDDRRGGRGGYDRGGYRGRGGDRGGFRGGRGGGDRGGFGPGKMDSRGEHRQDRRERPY
Test: Droplet microfluidics phase diagram of FUS-GFP liquid-liquid phase separation as a function of protein and 1,6-hexanediol concentration
Type: biochemical
Conditions: micro-droplets, GFP fluorescence puncta; homogeneous phase at higher diol concentrations (FIG. 6, N=322 droplets)
Procedure: The method utilises droplet microfluidics to rapidly produce many micro-droplets, each of which can be considered a discrete microenvironment in which to study protein phase separation. By altering the input solution conditions, a broad range of phase-separation environments are produced rapidly in order to map LLPS behaviour over a wide region of chemical space. […] Using the microfluidic platform, the phase boundary between phase-separated and homogeneous FUS solution is determined, as modulated by the small molecule 1,6-hexanediol, which is known to strongly interfere with LLPS behaviour. […]
Alexa647 dye (10 μM) was mixed with the 1,6-hexanediol solution, to provide a fluorescent marker for the intra-droplet 1,6-hexanediol concentration. […] Samples were collected for three minutes before undergoing fluorescence imaging analysis.
The concentration of FUS^G156E-EGFP and 1,6-hexanediol present in each droplet was determined by integration of volume-normalised EGFP (green fluorescent protein) and Alexa647 fluorescence, respectively. Phase separation was observed by the presence of discrete puncta in GFP fluorescence, whereas homogeneous droplet fluorescence indicated the absence of phase separation (FIG. 5). […]

OCCCCCCO [1,6-hexanediol]
concentration of 1,6-hexanediol at which phase separation of FUS-GFP was observable: < 1 % v/v

— patent US20230191413A1, “METHOD AND APPARATUS FOR MEASURING PHASE TRANSITION CHARACTERISTICS OF MACROMOLECULES” (CAMBRIDGE ENTERPRISE LIMITED, priority 2020, published 2023)
